Entries after “also recorded” stand apart in the source; their conditions may differ. Where a name gives a salt, the structure may show the parent alone.
How the values were obtained:
[1] = system: STZ-induced diabetic rats; assay: Fasting blood glucose (FBG) in Streptozotocin (STZ)-induced diabetic rats after oral administration; format: in vivo
Procedure: (§1) FIG. 1A is a bar graph showing in vivo anti-hyperglycemic effect on fasting blood glucose levels over time, ranging from 0 minute to 480 minutes, and at 1440 minutes, in STZ-induced diabetic rats, comparing a dose of 1.0 μM/kg compound 2a with control. Results are means±SEM; n=6 rats; * P<0.05, ** P<0.01, vs. STZ control.
as §1, with “1B” for “1A”, “2b” for “2a”
as §1, with “FIG. 1C” for “FIG. 1A”, “comparing an oral” for “comparing a”, “compound 2c” for “compound 2a”
as §1, with “FIG. 1D is a” for “FIG. 1A is a”, “from 0 minutes to 480” for “from 0 minute to 480”, “μM/kg compound 2d with control.” for “μM/kg compound 2a with control.”
These symptoms indicated the development of diabetes characterized by chronic and persistently elevated plasma glucose levels.
Compound 2a was orally administrated to the treated groups of diabetic rats at a dose of 1.0 μM/kg. Glucose levels in their blood were followed over 8.0 hours. […] Compounds 2b-d were orally administrated to the treated groups of diabetic rats at a dose of 1.0 μM/kg. Blood glucose levels were monitored at 0, 30 minutes, 60 minutes, 2 hours, 4 hours, 6 hours, 8 hours, and then again at 24 hours.

βTC6 cells = assay: Insulin secretion by βTC6 cells, high range insulin Sandwich ELISA kit; format: cell-based; details: for insulin secretion compared to the basal control: absence of glucose; for insulin secretion compared to basal insulin secretion: presence of 2.8 mM glucose, 10^−15, 10^−12, and 10^−9 M
Procedure: FIG. 2A is a bar graph showing the in vitro effects on insulin secretion of compound 2a at concentrations of 10^−15, 10^−12, and 10^−9 M, compared to control, in both the absence and presence of 2.8 mM glucose. Results are means of triplicates±SEM; * P<0.05, ** P<0.01, *** P<0.001, from relative basal control.
The secretion of insulin by βTC6 cells was measured using the high range insulin Sandwich ELISA kit. The 2.8 mM glucose gave a mild insulin response around 3000 pmol/l and was used in testing the effect of compounds 2a-d. […]

[2] = 10^−15, 10^−12, and 10^−9 M tested

Compound	melting point [°C]	insulin secretion compared to the basal control (βTC6 cells; [2])	insulin secretion compared to basal insulin secretion (βTC6 cells)	also measured
c1cc(-c2cc[n+](C3CCCCCC3)cc2)ccn1 (as salt: chloride) [compound 6, 1-cycloheptyl-[4,4′-bipyridin]-1-ium chloride]	102			
N=C(N)NC1CCCCCC1 (as salt: hydrochloride) [compound 10, 1-Cycloheptylguanidine hydrochloride]	106			
NC1CCCCCC1 [compound 2a, Cycloheptanamine Hydrochloride]		significantly stimulated		duration of significant reduction in blood glucose levels ([1]; 1.0 μM/kg): at least 8 hours; time to significant reduction in blood glucose levels ([1]; 1.0 μM/kg): ≤ 1 h; reduction in blood glucose levels compared to control diabetic rats ([1]; oral dose of 1.0 μM/kg, followed over 8.0 hours, Hydrochloride): significant reduction; also recorded: reductions in blood glucose levels; insulin secretion compared to the basal control (βTC6 cells; concentrations of 10^−15 and 10^−12 M): significantly stimulated; insulin secretion compared to basal insulin secretion (βTC6 cells; Hydrochloride): stimulated insulin secretions significantly; stimulation of insulin production (βTC6 cells; summary statement, glucose condition not given): stimulation of insulin production
O=C(NC1CCCCCC1)C(=O)NC1CCCCCC1 [compound 8, N1,N2-dicycloheptyloxalamide]	232			
Cc1ccc(S(=O)(=O)NC(=O)NC2CCCCCC2)cc1 [compound 9f, N-(Cycloheptylcarbamoyl)-4-methylbenzenesulfonamide]		not to a statistically significant degree	significant stimulation	
N=C(N)NC1CCCCCC1 [compound 10, 1-Cycloheptylguanidine hydrochloride]		not to a statistically significant degree	significant stimulation	
Cl.N=C(N)/N=C(\N)NC1CCCCCC1 [compound 11, (E)-Amino[(amino(cycloheptylamino)methylene)amino]methaniminium chloride]	283	not to a statistically significant degree	significant stimulation	

Continued, in another order:

melting point [°C]	Compound	insulin secretion compared to the basal control (βTC6 cells; [2])	insulin secretion compared to basal insulin secretion (βTC6 cells)	also measured
169 to 170	O=C(Nc1cc(C(F)(F)F)cc(C(F)(F)F)c1)NC1CCCCCC1 [9a, 1-[3′,5′-Bis(trifluoromethyl)phenyl]-3-cycloheptylurea]			
139 to 141	Nc1nccc(NC(=O)NC2CCCCCC2)n1 [compound 9c, 1-(2′-Aminopyrimidin-4′-yl)-3-cycloheptylurea]	not to a statistically significant degree	significant stimulation	
235 to 236	Nc1ccc(S(=O)(=O)NC(=O)NC2CCCCCC2)cc1 [compound 9d, 4-Amino-N-(cycloheptylcarbamoyl)benzenesulfonamide]	not to a statistically significant degree	significant stimulation	
